Laboratory results reported in ChEMBL document CHEMBL4428095, “Evolution of physicochemical properties of melanin concentrating hormone receptor 1 (MCHr1) antagonists” (Bioorg Med Chem Lett, 2016).

How the values were obtained:
[1] = Protein binding in human serum; type: ADME, cell-free; conditions: read-out: PB (converted)
[2] = Protein binding in monkey serum; type: ADME, cell-free, Macaca mulatta; conditions: rhesus monkey, read-out: PB (converted)
[3] = Protein binding in rat serum; type: ADME, cell-free

fraction unbound [1]: 0.005
fraction unbound [2]: 0.007
PB [3]: 99.8%
Compound: COc1cc(-n2cnc3cc(-c4ccc(Cl)cc4)sc3c2=O)ccc1OC[C@H](O)C1CC1
